Here are results for one compound from patent publication US9060997B2, “Antifolate compounds for the treatment of melanoma” (UNIVERSIDAD DE MURCIA, priority 2007, dated 2015).

One assay deals with Caspase-3. Description: Caspase-3 colorimetric activity assay. Type of assay: cell-based, human. Particulars: SkMel-28, 50 μM, 7 days. The method, then:
Cells were treated for 7 days with 50 μM TMECG. Caspase-3 activity was determined in the absence or the presence of […]. The results are expressed as the mean±SD of three cultures.
Caspase-3 activity in the SkMel-28 cells was measured using the caspase-3 colorimetric activity assay kit (Sigma). Briefly, the cells were washed with cold PBS and lysed with cell lysis buffer included in the kit. The cell lysates were centrifuged (10,000 g for 5 min at 4° C.), and the supernatants were collected. Equal amounts of protein (100 μg), 30 μg of colorimetric caspase-3 substrate (acetyl-Asp-Glu-Val-Asp p-Nitroanilide; Ac-[…]-pNA) and assay buffer were added to each reaction mix, which were then incubated for 4 h at 37° C. Caspase-3 activity was determined by measuring the absorbance at 405 nm. One unit of caspase-3 activity was expressed as 1 pmol of pNA formed per hour, and its specific activity was that unit divided by micrograms of protein. Caspase-3 inhibitor ([…]) was used as negative control.

Assay [1] has as its system MS, MAT1A, MAT2A, AHYC and DNMT1 mRNA. The assay can be described thus: Methionine cycle and methylase gene expression in SkMel-28 (real-time PCR). Type of assay: cell-based, human. From the text: Histograms compare the estimated relative levels of the mRNA with respect to that of β-actin. Values represent the number of copies of mRNA per each 1×10^6 copies of β-actin.
Primers were designer using Primer Express version 2.0 software (Applied Biosystems, Foster City, Calif.) and synthesized by Invitrogen. The sequence of the primers are as follow: MS (forward: 5′-[…]-[…]-3′; […]; MAT1A (forward: 5′-[…]-[…]; […]; The primers designed to amplify FRα cDNA were: FR1 (forward: 5′-[…]-[…]-3′); […]; cDNA samples (1 μL) were used for real-time PCR in a total volume of 20 μL using SYBR Green Reagent (Applied Biosystems) and specific primers on a 7500 Real Time PCR System of Applied Biosystems. The PCR amplification cycles included denaturation 95° C., 15 min; to activate HotStar Taq DNA polymerase and to minimize primer-dimer contribution), and amplification [over 40-50 cycles including denaturation (94° C.; 30 s), annealing (55° C.; 30 s), and extension (72° C.; 1 min)]. All PCR reactions were performed in triplicate and from at least two independent experiments. Non-RT control and negative control samples (without template) were processed in the same manner. The specificity of the amplification was verified by melting curve analysis for all samples, and occasionally by agarosa gel electrophoresis. Amplification of target gene sequences were compared against serial dilutions of know quantities of their purified cDNA fragments, and normalized to the abundance of the house-keeping gene β-actin.
(In general: In qPCR the cycle at which signal appears reflects the starting amount.)

The test system of a further assay is B16 melanoma cells. The assay can be described thus: Metastasis model, B16 cells injected into tail vein. It is filed as in vivo, mouse. Particulars: TMECG 20 mg/Kg/d plus Dipyridamol 10 mg/Kg/d intraperitoneal, 30 days, female mice. The method, then:
B16 melanoma cells were injected into the tail vein, allowing microtumours to develop (1 week), then, the animal were treated for 21 days with […]) plus Dipyridamol (10 mg/Kg/d) by intraperitoneal injection. The animals were sacrifice and lungs and liver analyzed for tumor growth. We have now increased the number of treated and control animals (treated 21 female mice compared with 21 control (untreated) females) and the time of treatment (30 days). […] 31).

In the next assay the test system is MCF7 cells. Description: MTT cell proliferation assay, MCF7. Type of assay: cell-based. Particulars: Homo sapiens, 144 h; MCF7, 6 days of treatment. How it is done:
(§1) Four human cancer cells lines (SkMel-28, MCF7, H1264 and Caco-2) were obtained from the American Type Tissue Culture Collection (ATCC) and were maintained in appropriate culture mediums supplemented with 10% fetal calf serum (FCS) and antibiotics, under standard tissue culture conditions (e.g. modified Eagle's medium (MEM) containing 1 mM sodium pyruvate and 10% fetal bovine serum (FES) under 5% CO2/95% air atmosphere.). Cell injury was evaluated by a colorimetric assay for mitochondrial function using the 3-(4,5-dimethylthiazolyl-2)-2,5-diphenyltetrazolium bromide (MTT) cell proliferation assay. For this assay cells were plated in a 96-well plate at a density of 1000 cells/well and grown until they reached 50-60% confluence. Human epidermal melanocytes (HeM) were supplied by Gentaur and were cultured in HAM-F10 medium supplemented with 10% FCS, antibiotics and the human melanocyte growth supplement (Gentaur).

The target of another assay is T1, rHDHFR (Homo sapiens, UniProt P00374).
T1 construct: purchased Sigma
T1 sequence (P00374 1-187): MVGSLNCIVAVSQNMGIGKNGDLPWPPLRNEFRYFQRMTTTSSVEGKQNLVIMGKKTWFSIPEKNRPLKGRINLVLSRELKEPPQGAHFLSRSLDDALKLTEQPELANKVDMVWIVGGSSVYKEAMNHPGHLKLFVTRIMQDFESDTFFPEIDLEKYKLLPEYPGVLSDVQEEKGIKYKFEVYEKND
The assay can be described thus: rHDHFR inhibition, progress curves. Type of assay: biochemical. How it is done: The experiments were carried out in the same buffer as fluorescence experiments in the presence of NADPH (100 μM), DHF (10 μM), and rHDHFR (1.5 nM).
The activity of rHDHFR was determined at 25° C. by following the decrease in the absorbance of NADPH and DHF at 340 nm (ε=11800 M-1 cm−1) (Stone and Morrison, 1986). Progress curves were obtained under ordered conditions ([NADPH]>>[DHF]). rHDHFR inhibition constants were calculated as described by Navarro-Perán et al., 2005b. The dissociation constant for the binding of inhibitors to free rHDHFR was determined at 25° C. by fluorescence titration in an automatic-scanning Perkin-Elmer LS50B spectrofluorimeter. Fluorescence emission spectra were recorded when rHDHFR fluorescence was excited at 290 nm. Stopped-flow fluorescence experiments were carried out using an Applied Photophysics Ltd. Pi-Star 180 spectrometer with a stopped-flow unit at 25° C.

A further assay deals with FRα mRNA. The assay can be described thus: FRα expression in SkMel-28 (real-time PCR, RT-PCR). It is filed as cell-based, human. Particulars: SkMel-28, 50 μM. How it is done: PolyA+ mRNA from human adult skin was purchased from Invitrogen. SkMel-28 and HEM polyA+ mRNA was extracted from 5×10^6 cells using the Illustra Quick Prep Micro mRNA purification kit (GE Healthcare). mRNA (200 ng) was used to synthesize cDNA using SuperScript First-Strand Synthesis System (Invitrogen). PCR amplification of 2 μL of the cDNA strand generated was carried out in a total volume of 50 μL using an Eppendorf Mastercycler Thermal Cycler. Samples were amplified by 40 cycles at 95° C. (1 min), 62° C. (1 min) and 72° C. (1 min). The amplified PCR products were subjected to electrophoresis in 3% agarose gel and stained with ethidium bromide.
Primers were designer using Primer Express version 2.0 software (Applied Biosystems, Foster City, Calif.) and synthesized by Invitrogen. […] Amplification of target gene sequences were compared against serial dilutions of know quantities of their purified cDNA fragments, and normalized to the abundance of the house-keeping gene β-actin.

The subject of a further assay is Caco-2 cells. The assay can be described thus: MTT cell proliferation assay, Caco-2. It is filed as cell-based, human. Particulars: Homo sapiens, 144 h; Caco-2, 6 days of treatment. How it is done: as §1
In general terms: Tetrazolium dyes change colour on reduction, which living cells bring about.

Setting [2] is: SkMel-28, 50 μM, five days, versus untreated SkMel-28.

Each structure is given as a SMILES string.

As to `COc1cc(C(=O)O[C@@H]2Cc3c(O)cc(O)cc3O[C@@H]2c2ccc(O)c(O)c2)cc(OC)c1OC` [TMECG, 3-O-(3,4,5-trimethoxybenzoyl)-(−)-epicatechin], the caspase-3 activity result with Caspase-3 is given as “significantly higher caspase-3 activity”. In addition, in assay [1] (setting [2]), the “level of MAT1A mRNA” value is recorded as “essentially the some”. In assay [1] (setting [2]), the “level of MAT2A mRNA” value is listed as “slightly but significant increase”. In addition, the “DNMT1 mRNA” value in assay [1] (SkMel-28, treated cells) is listed as “recovered normal levels”. In the assay on B16 melanoma cells, the lung metastasis result is listed as “reduction on lung metastasis”. Also, the IC50 was 80 µM in the assay with MCF7 cells and 33 µM in the assay with Caco-2 cells. In addition, the “Decrease % further EI reactions” value on rHDHFR (decrease of KI to KI* by further EI-complex reactions) is 19 −fold. The Ki on rHDHFR (read-out: effective inhibition constant (KI*)) came to 0.11 µM. For the same compound, the “mature FRα mRNA (RT-PCR)” value in the assay with FRα mRNA (3 days) is recorded as “partially restored the levels of mature FRα mRNA”. The “FRα expression (exon 5 region, real-time PCR)” value in the assay with FRα mRNA (5 days of treatment) is “no apparent effect on its expression”.

The IC50 is the concentration needed to halve the response being measured. A high value points to weaker potency. By Ki is commonly meant a measure of affinity in units of concentration, obtained from inhibition or displacement.
